What was measured:
[1] = tested on: A/California/7/2009 (H1N1); parameters: species or system BALB/c mice; conditions: mouse, in vivo
[2] = tested on: A/California/7/2009 (H1N1); parameters: species or system BALB/c mice; conditions: mouse, in vivo; remark: listed apart in the source
[3] = pig, in vivo
[4] = parameters: species or system mice; conditions: mouse, in vivo

| Molecule | time after which HAI titer started to decline to levels of non-adjuvanted flu vaccine [1] [months] | elevation of IgG2a production [2] [fold] | type of immune response by IgG2a/IgG1 ratio [2] | skin response at the injection site [3] | raise of specific antibody titers in the presence vs. absence of laser pre-treatment [4] [folds] |
| --- | --- | --- | --- | --- | --- |
| CC(C)Cn1cnc2c(N)nc3ccccc3c21 [IMIQ, 1-(2-Methylpropyl)-1H-imidazo[4,5-c]quinolin-4-amine] | > 3 | 5 | Th1-biased immune response | Diminished skin irritation |  |
| OVA: protein model antigen ovalbumin |  |  |  |  | 6 |

Source: patent US11510983B2 (priority 2013, dated 2022)
